According to patent US7709637B2, “5-phenylpyrimidines, their preparation, intermediates for their preparation, and their use for controlling harmful fungi” (BASF SE, priority 2001, dated 2010):

Test: not given
Conditions: not given

Row | SMILES | melting point [°C]
1 | C[C@H](Nc1nc(-n2cccn2)nc(Cl)c1-c1c(F)cc(F)cc1F)C(F)(F)F [I-2, (S)-6-Chloro-4-(2,2,2-trifluoro-1-methylethyl)amino-5-(2,4,6-trifluorophenyl)-2-(1-pyrazolyl)pyrimidine] | 209
2 | C[C@H](Nc1nc(-n2ccnc2)nc(Cl)c1-c1c(F)cc(F)cc1F)C(F)(F)F [I-3, (S)-6-Chloro-4-(2,2,2-trifluoro-1-methylethyl)amino-5-(2,4,6-trifluorophenyl)-2-(1-imidazolyl)pyrimidine] | 172 to 173
3 | C[C@H](Nc1nc(-n2cncn2)nc(Cl)c1-c1c(F)cc(F)cc1F)C(F)(F)F [I-4, (S)-6-Chloro-4-(2,2,2-trifluoro-1-methylethyl)amino-5-(2,4,6-trifluorophenyl)-2-(1,2,4-triazol-1-yl)pyrimidine] | 176 to 177

Test: Lipophilicity parameter logPow by RP-HPLC run time method (OECD guideline)
Format: physicochemical
Conditions: C18 stationary phase, methanol/buffer pH 7.4, isocratic
Procedure: The lipophilicity parameters logPow (Table I) were determined as specified by OECD directive test guidelines using the RP-HPLC run time method.
To this end, a logk′/logPow correlation curve based on ten reference substances was plotted and validated with the aid of the lipophilicity parameters of eight comparative substances, which had been established by the extraction method.
A commercially available reversed-phase C18 stationary phase was used as stationary phase. Chromatographic separation was carried out with methanol and a buffer solution as mobile phase at pH 7.4 under isocratic conditions.
The retention times of the standards tR were converted in accordance with equation Φ into the capacity factors k′, where t0, as […] of the solvent unretarded on the reversed-phase C18 stationary phase, represents the dead time of the chromatographic system:
The linear correlation of the logk′ values with the logPow values of the standards published in the appendix to the Directive 92/69/EEC yields the correlation curve through linear regression.
The lipophilicity parameters logPow of the analytes were interpolated from the correlation curve of the standards after calculation of the logarithmic capacity logk′.
The validation of the RP-HPLC analytical method described, and of the standards used, is carried out with the aid of eight comparison active compounds, the distribution behavior of which was determined with the aid of the extraction method.

Row | SMILES | logPow
4 | CCN(CC)c1nc(-c2ncccn2)nc(Cl)c1-c1c(F)cccc1Cl [I-9] | logPow 3.86
5 | CC(C)Nc1nc(-c2ncccn2)nc(Cl)c1-c1c(F)cc(F)cc1F [I-11] | logPow 3.15
6 | CCN(CC)c1nc(-c2cnccn2)nc(Cl)c1-c1c(F)cccc1Cl [I-14] | logPow 4.49
7 | CC(C)Nc1nc(-c2cnccn2)nc(Cl)c1-c1c(F)cc(F)cc1F [I-18] | logPow 4.7

Other lines, results leading:

Row | logPow | SMILES
8 | logPow 4.41 | CCN(CC)c1nc(-c2cnccn2)nc(Cl)c1-c1c(F)cc(F)cc1F [I-20]
9 | logPow 4.48 | CC(C)N(C)c1nc(-c2cnccn2)nc(Cl)c1-c1c(F)cc(F)cc1F [I-21]
10 | logPow 4.72 | CC(C)(C)CNc1nc(-c2cnccn2)nc(Cl)c1-c1c(F)cc(F)cc1F [I-22]
